# Patent publication US20170022242A1, “NOVEL ANTIVIRAL AND ANTITUMORAL COMPOUNDS” (KATHOLIEKE UNIVERSITEIT LEUVEN, KU LEUVEN R&D, priority 2014, published 2017)
# Where two headings read alike, the source gives them in different places.
# Tests used:
# [1] = system: HCV1b/Con1 replicon; experiment: HCV replicon antiviral evaluation assay (Luc reporter); assay type: cell-based; settings: concentration inhibiting HCV replicon by 50%, Huh7 ET cells, 72 hr
# [2] = Cytotoxicity, CytoTox-1 cell proliferation assay of cell numbers; settings: human
# [3] = system: ET (luc-ubi-neo/ET) Huh7 human hepatoma cell line; experiment: as above; settings: concentration decreasing cell viability by 50%; Huh7 ET cells, 72 hr; Table 1
# [4] = system: ET (luc-ubi-neo/ET) Huh7 human hepatoma cell line
# [5] = Hepatitis C virus, Table 1, 2′-C-methyl nucleoside phosphoramidates
# [6] = Table 1, 2′-C-methyl nucleoside phosphoramidates
SMILES,"EC50 [1, 6] [µM]",CC50 [3] [µM],CC50 [4] [µM],further results
"C[C@@]1(O)[C@H](O)[C@@H](CO)O[C@H]1n1ccc(N)nc1=O [Cmpd 4, 2′-C-methylcytidine, reference compound]",,,,"EC50 [1, 5]: 1.34 µM; CC50 at 72 h [2]: > 100 µM"
"C[C@@]1(O)[C@H](O)[C@@H](CO)O[C@H]1n1ccc(=O)[nH]c1=O [Cmpd 5, 2′-C-methyluridine, reference compound]",,,,"EC50 [1, 5]: 6.31 µM; CC50 at 72 h [2]: > 100 µM"
"COC(=O)C[C@H](NP(=O)(OCC1OC(n2ccc(N)nc2=O)C(C)(O)C1O)Oc1ccccc1)C(=O)OC (stereo partly drawn) [Cmpd 16a, 2′-C-methylcytidine-5′-[phenyl-bis(methoxy-aspartyl)]phosphate]",3.71,> 100,,
"COC(=O)[C@H](CC(=O)OCc1ccccc1)NP(=O)(OCC1OC(n2ccc(N)nc2=O)C(C)(O)C1O)Oc1ccccc1 (stereo partly drawn) [Cmpd 16b, 2′-C-methylcytidine-5′-[phenyl-(α-methoxy-β-benzyloxy-aspartyl)]phosphate]",1.32,> 100,,
"CC(C)OC(=O)C[C@H](NP(=O)(OCC1OC(n2ccc(N)nc2=O)C(C)(O)C1O)Oc1ccccc1)C(=O)OC(C)C (stereo partly drawn) [Cmpd 16c, 2′-C-Methylcytidine-5′-[1-phenyl-bis(isopropyl-aspartyl)]phosphate]",0.96,> 100,,
"CCCCOC(=O)C[C@H](NP(=O)(OC[C@H]1O[C@@H](n2ccc(N)nc2=O)[C@](C)(O)[C@@H]1O)Oc1ccccc1)C(=O)OCCCC (stereo partly drawn) [Cmpd 16d, 2′-C-Methylcytidine-5′-[phenyl-bis(n-butyl-aspartyl)]phosphate]",0.26,30.9,,
"CCCCCOC(=O)C[C@H](NP(=O)(OCC1OC(n2ccc(N)nc2=O)C(C)(O)C1O)Oc1ccccc1)C(=O)OCCCCC (stereo partly drawn) [Cmpd 16e, 2′-C-Methyl-cytidine-5′-[phenyl-bis(amyl-aspartyl)]phosphate]",0.05,,9.53,
"CC(C)CCOC(=O)C[C@H](NP(=O)(OCC1OC(n2ccc(N)nc2=O)C(C)(O)C1O)Oc1ccccc1)C(=O)OCCC(C)C (stereo partly drawn) [Cmpd 16f, 2′-C-Methylcytidine-5′-[phenyl-bis(isoamyl-aspartyl)]phosphate]",0.05,9.54,,
"COC(=O)C[C@H](NP(=O)(OCC1OC(n2ccc(=O)[nH]c2=O)C(C)(O)C1O)Oc1ccccc1)C(=O)OC (stereo partly drawn) [Cmpd 17a, 2′-C-methyluridine-5′-[phenyl-bis(methoxy-aspartyl)]phosphate]",1.13,> 100,,
"COC(=O)[C@H](CC(=O)OCc1ccccc1)NP(=O)(OCC1OC(n2ccc(=O)[nH]c2=O)C(C)(O)C1O)Oc1ccccc1 (stereo partly drawn) [Cmpd 17b, 2′-C-methyluridine-5′-[phenyl-(α-methoxy-β-benzyloxy-aspartyl)]phosphate]",0.26,43.4,,
"CC(C)OC(=O)C[C@H](NP(=O)(OCC1OC(n2ccc(=O)[nH]c2=O)C(C)(O)C1O)Oc1ccccc1)C(=O)OC(C)C (stereo partly drawn) [Cmpd 17c, 2′-C-Methyl-uridine-5′-[1-phenyl-bis(isopropyl-aspartyl)]phosphate]",0.29,,35.7,
"CCCCOC(=O)C[C@H](NP(=O)(OCC1OC(n2ccc(=O)[nH]c2=O)C(C)(O)C1O)Oc1ccccc1)C(=O)OCCCC (stereo partly drawn) [Cmpd 17d, 2′-C-Methyl-uridine-5′-[phenyl-bis(n-butyl-aspartyl)]phosphate]",0.04,,4.64,
"CCCCCOC(=O)C[C@H](NP(=O)(OCC1OC(n2ccc(=O)[nH]c2=O)C(C)(O)C1O)Oc1ccccc1)C(=O)OCCCCC (stereo partly drawn) [Cmpd 17e, 2′-C-Methyl-uridine-5′-[phenyl-bis(amyl-aspartyl)]phosphate]",0.03,,7.11,
"CC(C)CCOC(=O)C[C@H](NP(=O)(OCC1OC(n2ccc(=O)[nH]c2=O)C(C)(O)C1O)Oc1ccccc1)C(=O)OCCC(C)C (stereo partly drawn) [Cmpd 17f, 2′-C-Methyl-uridine-5′-[phenyl-bis(isoamyl-aspartyl)]phosphate]",0.03,,10,
"C[C@@]1(F)[C@H](O)[C@@H](CO)O[C@H]1n1ccc(=O)[nH]c1=O [Cmpd 22, 2′-deoxy-2′-fluoro-2′-C-methyluridine, reference compound]",,,,"EC50 ([1]; Hepatitis C virus, Table 2, 2′-F-nucleoside phosphoramidates): > 100 µM; CC50 at 72 h [2]: > 100 µM"
"CC(C)CCOC(=O)C[C@H](NP(=O)(OCC1OC(n2ccc(=O)[nH]c2=O)C(C)(F)C1O)Oc1ccccc1)C(=O)OCCC(C)C (stereo partly drawn) [Cmpd 23a, 2′-Deoxy-2′-fluoro-2′-C-methyl-uridine-5′-[phenyl-bis(isoamyl-aspartyl)]phosphate]",,,27.7,"EC50 ([1]; Table 2, 2′-F-nucleoside phosphoramidates): 0.06 µM"
"CC(C)CCOC(=O)C[C@H](NP(=O)(OCC1OC(n2ccc(=O)[nH]c2=O)C(C)(F)C1O)Oc1ccccc1)C(=O)OCCC(C)C (stereo partly drawn) [Mixture 23a/23b, 2′-Deoxy-2′-fluoro-2′-C-methyl-uridine-5′-[phenyl-bis(isoamyl-aspartyl)]phosphate]",,,33.1,
